Assay results from US11932652B2, “Pyrrolidinyl urea derivatives and application thereof in TrkA-related diseases” (ZHANGZHOU PIEN TZE HUANG PHARMACEUTICAL CO., LTD., priority 2018, dated 2024).
Each block holds one compound with its values, some of them ahead of it.

Columns and labels:
TrkA = biological target: T1, TrkA (Homo sapiens, UniProt P04629); assay: TrkA enzyme activity test (HTRF); format: biochemical; settings: 0.5 nM TrkA kinase, 90 μM ATP, 23° C., 90 minutes
T1 construct: purchased Invitrogen PV4114
T1 sequence (P04629 33-796): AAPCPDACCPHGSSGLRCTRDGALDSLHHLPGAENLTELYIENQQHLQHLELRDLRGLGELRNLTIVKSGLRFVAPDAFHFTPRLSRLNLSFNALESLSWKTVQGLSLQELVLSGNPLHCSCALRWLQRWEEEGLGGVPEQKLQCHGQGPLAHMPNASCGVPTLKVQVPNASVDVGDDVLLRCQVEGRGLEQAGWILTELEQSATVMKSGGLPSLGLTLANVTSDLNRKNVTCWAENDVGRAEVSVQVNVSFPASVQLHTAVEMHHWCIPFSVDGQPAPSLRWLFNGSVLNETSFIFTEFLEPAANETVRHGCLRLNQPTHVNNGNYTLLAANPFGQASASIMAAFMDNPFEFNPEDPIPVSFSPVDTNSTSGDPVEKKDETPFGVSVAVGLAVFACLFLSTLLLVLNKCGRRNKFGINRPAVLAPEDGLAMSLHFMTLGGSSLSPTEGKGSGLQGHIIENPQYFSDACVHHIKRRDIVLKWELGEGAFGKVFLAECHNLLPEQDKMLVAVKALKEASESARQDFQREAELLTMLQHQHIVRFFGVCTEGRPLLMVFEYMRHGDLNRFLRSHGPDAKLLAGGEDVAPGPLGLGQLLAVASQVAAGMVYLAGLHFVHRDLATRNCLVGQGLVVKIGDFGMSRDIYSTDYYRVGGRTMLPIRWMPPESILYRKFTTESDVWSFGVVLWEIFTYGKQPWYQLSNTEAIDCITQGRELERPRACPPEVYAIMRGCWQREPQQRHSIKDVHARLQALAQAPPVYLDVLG
Description: 50 mM Hepes (pH 7.5), 5 mM MgCl2 (magnesium chloride), 0.01 mM orthovanadate (sodium vanadate), 1% BSA (bovine serum albumin), 1 mM (dithiothreitol)
This experiment used Cisbio's homogeneous time-resolved fluorescence resonance energy transfer (HTRF® method) for activity test. In the test plate, the enzyme, biotin-labeled peptide substrate, ATP, and test compound were mixed, and incubated for reaction. After the reaction, ethylenediaminetetraacetic acid was added to terminate the reaction; at the same time, Eu-labeled antibody and streptavidin-labeled XL665 were added for reaction and detection. The data were expressed by the readings of the fluorescence signal at 665 nm and 620 nm, where a high ratio of 665 nm/620 nm indicated higher activity, and a low ratio of 665 nm/620 nm indicated inhibition of activity.
1. Dilution of compound: the test compound was 3-fold diluted to prepare a total of 11 concentrations, the concentration was from 10 μM to 0.17 nM in the final system;
2. A 10 μL reaction system with a buffer of 50 mM Hepes (pH 7.5), 5 mM MgCl2, 0.01 mM sodium vanadate, 1% BSA, and 1 mM DTT, and containing 0.5 nM TrkA kinase, 0.3 μM biotin-TK peptide (biotin-labeled tyrosine kinase substrate peptide), 90 μM ATP was incubated at 23° C. for 90 minutes. 10 μL of stop solution containing 20 mM EDTA, 1.34 nM phosphorylated substrate antibody, and 100 nM streptavidin-labeled fluorescent molecule XL-665 was then added, incubated at 23° C. for 60 minutes; the signal was read with Envision;
3. The inhibition rate of the compound was calculated from the data read by the instrument, and the IC50 value was calculated using the mode 205 in XLFIT5 of IDBS.

CYP2C9 = biological target: T2, CYP2C9 (Homo sapiens, UniProt P11712); assay: Cytochrome P450 isozyme inhibitory activity test, CYP2C9; format: in vitro ADME
T2 construct: from tissue; host or cells: human liver microsomes
T2 sequence (P11712 whole entry): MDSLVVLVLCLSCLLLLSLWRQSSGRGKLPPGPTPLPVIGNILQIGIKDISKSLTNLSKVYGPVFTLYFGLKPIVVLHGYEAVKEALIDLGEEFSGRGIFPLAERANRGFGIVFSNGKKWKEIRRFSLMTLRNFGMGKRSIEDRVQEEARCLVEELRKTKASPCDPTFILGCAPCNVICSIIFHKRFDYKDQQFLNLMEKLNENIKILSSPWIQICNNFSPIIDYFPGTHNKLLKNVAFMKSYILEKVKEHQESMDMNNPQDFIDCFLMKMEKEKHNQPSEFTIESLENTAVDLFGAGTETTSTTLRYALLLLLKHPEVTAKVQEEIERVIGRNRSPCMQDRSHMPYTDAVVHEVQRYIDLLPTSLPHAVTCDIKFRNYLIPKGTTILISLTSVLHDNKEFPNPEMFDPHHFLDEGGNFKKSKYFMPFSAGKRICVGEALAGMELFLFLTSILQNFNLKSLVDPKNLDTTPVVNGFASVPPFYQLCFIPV
Description: (§1) Determination of the inhibitory activity of the test compound on different human cytochrome P450 isozymes.
(§2) The test compound, standard inhibitor (100×final concentration), and a mixed substrate working solution were prepared; the microsome frozen in −80° C. refrigerator was thawed. […]

CYP2C19 = biological target: T3, CYP2C19 (Homo sapiens, UniProt P33261); assay: Cytochrome P450 isozyme inhibitory activity test, CYP2C19; format: in vitro ADME; settings: heading: Cytochrome P450 isozyme IC50, CYP2C19; human liver microsome
T3 construct: from tissue; host or cells: human liver microsomes
T3 sequence (P33261 whole entry): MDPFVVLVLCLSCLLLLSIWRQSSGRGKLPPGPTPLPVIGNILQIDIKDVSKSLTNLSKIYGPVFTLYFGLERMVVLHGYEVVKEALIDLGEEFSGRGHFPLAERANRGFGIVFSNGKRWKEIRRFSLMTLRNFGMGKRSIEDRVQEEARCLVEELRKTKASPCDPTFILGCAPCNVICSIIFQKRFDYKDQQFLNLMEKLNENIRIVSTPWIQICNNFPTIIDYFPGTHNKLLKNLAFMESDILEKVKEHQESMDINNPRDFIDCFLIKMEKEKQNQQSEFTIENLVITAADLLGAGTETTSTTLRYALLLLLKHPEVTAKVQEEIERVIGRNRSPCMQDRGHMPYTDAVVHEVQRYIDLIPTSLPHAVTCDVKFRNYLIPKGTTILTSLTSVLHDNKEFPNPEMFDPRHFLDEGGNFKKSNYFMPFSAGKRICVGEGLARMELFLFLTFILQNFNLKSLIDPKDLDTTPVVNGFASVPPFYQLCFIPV
Description: as §1
(§3) The test compound, standard inhibitor (100×final concentration), and a mixed substrate working solution were prepared; the microsome frozen in −80° C. refrigerator was thawed. 2 μL of the test compound and standard inhibitor solution was added to the corresponding wells, and at the same time 2 μL of the corresponding solvent was added to the non-inhibitor control wells (NIC) and blank control wells (Blank) wells; then 20 μL of mixed substrate solution was added to the corresponding wells, except for the Blank wells (20 μL of PB was added to the Blank wells); a human liver microsome solution was prepared (put back into the refrigerator immediately after using and marking the date), and then 158 μL of the human liver microsome solution was added to all wells; the above sample plate was placed in a 37° C. water bath for pre-incubation, then the coenzyme factor (NADPH) solution was prepared; 10 minutes later, 20 μL of the NADPH solution was added to all wells, and the sample plate was shaken well, placed in a 37° C. water bath and incubated for 10 minutes; at the corresponding time point, 400 μL of cold acetonitrile solution (internal standard: 200 ng/mL tolbutamide and labetalol) was added to terminate the reaction; the sample plate was evenly mixed, centrifuged at 4000 rpm for 20 minutes to precipitate proteins; 200 μL of the supernatant was added to 100 μL of water, shook well, and tested by LC/MS/MS.

CYP2D6 = biological target: T4, CYP2D6 (Homo sapiens, UniProt P10635); assay: Cytochrome P450 isozyme inhibitory activity test, CYP2D6; format: in vitro ADME; settings: human liver microsomes
T4 construct: from tissue; host or cells: human liver microsomes
T4 sequence (P10635 whole entry): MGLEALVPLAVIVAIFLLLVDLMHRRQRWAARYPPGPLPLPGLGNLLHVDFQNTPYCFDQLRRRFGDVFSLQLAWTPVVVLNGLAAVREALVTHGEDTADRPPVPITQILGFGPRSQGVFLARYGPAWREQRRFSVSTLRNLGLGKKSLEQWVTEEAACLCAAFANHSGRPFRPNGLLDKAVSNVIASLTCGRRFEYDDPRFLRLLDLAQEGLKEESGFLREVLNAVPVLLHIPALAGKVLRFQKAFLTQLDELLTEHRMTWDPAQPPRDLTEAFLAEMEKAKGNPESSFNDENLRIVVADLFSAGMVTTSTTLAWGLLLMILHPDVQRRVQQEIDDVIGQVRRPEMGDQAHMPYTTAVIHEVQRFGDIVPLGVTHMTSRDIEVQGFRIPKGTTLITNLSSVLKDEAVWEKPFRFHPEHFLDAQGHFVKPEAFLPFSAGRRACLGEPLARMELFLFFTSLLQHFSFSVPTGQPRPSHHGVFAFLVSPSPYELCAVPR
Description: as §1, §2

CYP3A4 = biological target: T5, CYP3A4 (Homo sapiens, UniProt P08684); assay: Cytochrome P450 isozyme inhibitory activity test, CYP3A4; format: in vitro ADME; settings: human, human liver microsomes
T5 construct: from tissue; host or cells: human liver microsomes
T5 sequence (P08684 whole entry): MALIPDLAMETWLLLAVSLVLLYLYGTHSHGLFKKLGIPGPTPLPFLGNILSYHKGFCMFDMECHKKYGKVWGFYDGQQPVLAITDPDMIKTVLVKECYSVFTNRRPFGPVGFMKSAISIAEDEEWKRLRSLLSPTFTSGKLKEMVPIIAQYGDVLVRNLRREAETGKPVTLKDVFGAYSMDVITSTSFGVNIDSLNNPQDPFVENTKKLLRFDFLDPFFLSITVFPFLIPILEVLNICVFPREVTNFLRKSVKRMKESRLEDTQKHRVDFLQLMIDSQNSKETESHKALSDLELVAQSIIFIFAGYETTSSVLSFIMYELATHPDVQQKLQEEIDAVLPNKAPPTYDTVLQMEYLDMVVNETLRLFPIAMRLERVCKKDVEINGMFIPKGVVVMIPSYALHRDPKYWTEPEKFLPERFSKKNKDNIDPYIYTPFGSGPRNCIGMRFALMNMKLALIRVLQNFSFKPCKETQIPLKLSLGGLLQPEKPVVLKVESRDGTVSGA
Description: as §1, §3

plasma protein [1] = assay: Plasma protein binding rate (PPB) test, human plasma; format: in vitro ADME; settings: 2 μM, dialysis 37° C. 4 hours
Description: (§4) The protein binding rates of the test compound in the plasma of humans, SD rats and Beagle dogs were determined.
(§5) 796 μL of blank plasma from humans, SD rats and Beagle dogs (plasma purchased from BioreclamationIVT) were taken, 4 μL of working solution of the test compound (400 μM) or warfarin working solution (400 μM) was added and the final concentration of the test compound or warfarin was 2 μM. The sample was mixed thoroughly. The final concentration of organic phase DMSO was 0.5%; 50 μL of the plasma sample treated with the test compound or warfarin was pipetted into the sample receiving plate, and a corresponding volume of blank plasma or buffer was added immediately so that the final volume in each sample well was 100 μL, the volume ratio of plasma:dialysis buffer was 1:1; 400 μL of stop solution was added to these samples, and these samples were used as T0 samples for recovery and stability determination. To samples were stored at 2° C. to 8° C. for subsequent processing together with other dialyzed samples; 150 μL of the plasma sample treated with the test compound or warfarin was added into the dosing end of each dialysis hole, and 150 μL of blank dialysis buffer was added to the receiving end corresponding to the dialysis hole. Then the dialysis plate was sealed with gas-permeable membrane and placed in a humidified 5% CO2 incubator, and incubated at 37° C. with 100 rpm shaking for 4 hours. After the dialysis, 50 μL of the dialysis buffer sample and the dialysis plasma sample was transferred to a new sample receiving plate. […] All samples were analyzed by LC/MS/MS after protein precipitation, and the plasma protein unbound rate, binding rate and recovery rate was calculated according to the following formula: % unbound rate=100*free compound concentration at the membrane buffer side/total compound concentration at the membrane plasma side, % protein binding rate=100-% unbound rate, % recovery rate=100*(free compound concentration at the membrane buffer side+total compound concentration at the membrane plasma side)/total compound concentration before dialysis.

plasma protein [2] = assay: Plasma protein binding rate (PPB) test, SD rat plasma; format: in vitro ADME; settings: 2 μM, dialysis 37° C. 4 hours
Description: as §4, §5

[3] = Metabolic stability (MMS) by human liver microsome; format: in vitro ADME; settings: liver microsomes, pH 7.4, 0.5 mg protein/mL, read-out: Intrinsic clearance by liver microsome, Human
Description: (§6) Determination of the metabolic stability of the test compound by human, rat and canine liver microsome.
(§7) Test compound (10 mM), testosterone (reference compound, 10 mM), diclofenac (reference compound, 10 mM), propafenone (reference compound, 10 mM).
(§8) 100 mM potassium phosphate buffer (pH 7.4).
(§9) Intermediate solution: 45 μL of DMSO was used (with 450 μL of 1:1 methanol/water) to dilute 5 μL of the test or reference compound.
(§10) Working solution: 450 μL of 100 mM potassium phosphate buffer was used to dilute the intermediate solution.
(§11) 1. β-Nicotinamide adenine dinucleotide phosphate, from Sigma, Cat. No. N0505.
(§12) 3. Isocitrate dehydrogenase, from Sigma, Cat. No. 12002.
(§13) Preparation of liver microsome solution (final concentration: 0.5 mg protein/mL)
(§14) Cold acetonitrile containing 100 ng/mL tolbutamide and 100 ng/mL labetalol was used as the internal standard.
(§15) 10 μL of the working solution of the test compound or reference compound was added to all plates (T0, T5, T10, T20, T30, T60, NCF60).
(§16) 680 μL of liver microsome solution was added to each well of 96-well plates, then 80 μL was added to each well of the plates, and the plates were placed at 37° C. for pre-incubation for approximately 10 minutes. […]
(§17) The half-life T/2 and the intrinsic clearance by liver microsome Clint(mic) were calculated by the following formulas: […]

[4] = Metabolic stability (MMS) by rat liver microsome; format: in vitro ADME; settings: liver microsomes, pH 7.4, 0.5 mg protein/mL, read-out: Intrinsic clearance by liver microsome, Rat
Description: as §6, §7, §8, §9, §10, §11, §12, §13, §14, §15, §16, §17

Compound: COCCN1C[C@@H](n2ccc(F)c2)[C@H](NC(=O)Nc2c(C)c(-c3cc4n(n3)CCC4)nn2-c2ccccc2)C1 [Compound 4]
IC50 (TrkA): 0.00305 µM

Compound: COCCN1C[C@@H](n2cc(F)c(F)c2)[C@H](NC(=O)Nc2c(C)c(-c3cnc(C4(F)COC4)nc3)nn2-c2ccccc2)C1 [Compound 6]
IC50 (TrkA): 0.00027 µM

Compound: COCCN1C[C@@H](n2ccc(F)c2)[C@H](NC(=O)Nc2c(C)c(-c3cnc(C4(F)CNC4)nc3)nn2-c2ccccc2)C1 [Compound 8]
IC50 (TrkA): 0.00103 µM

Compound: COCCN1C[C@@H](NC(=O)Nc2c(C)c(-c3cnc(C)nc3)nn2-c2ccccc2)[C@H](c2cccc(F)c2)C1 [Reference compound D1, reference compound]
Plasma protein unbound rate, Human plasma (plasma protein [1]): 13.6% | Plasma protein unbound rate, SD Rat plasma (plasma protein [2]): 9.6% | IC50 (CYP2C9; heading: Cytochrome P450 isozyme IC50, CYP2C9, human liver microsome): > 50 µM | IC50 (CYP2C19): > 50 µM | IC50 at 10 min (CYP2D6): 39.7 µM | IC50 at 10 min (CYP3A4): 37.1 µM | CLint scaled [3]: 52.1 mL/min/kg | CLint scaled [4]: 52.9 mL/min/kg

Second part, the compound after the results:

IC50 (TrkA): 0.00016 µM | IC50 at 10 min (CYP2C9; human, human liver microsomes): 24.2 µM | IC50 (CYP2C19): > 50 µM | IC50 at 10 min (CYP2D6): 28.5 µM | IC50 at 10 min (CYP3A4): 19.2 µM
Compound: COCCN1C[C@@H](n2cc(F)c(F)c2)[C@H](NC(=O)Nc2c(C)c(-c3cnc4c(c3)COC4)nn2-c2ccccc2)C1 [Compound 1]

IC50 (TrkA): 0.00027 µM | Plasma protein unbound rate, Human plasma (plasma protein [1]): 15.3% | Plasma protein unbound rate, SD Rat plasma (plasma protein [2]): 5.1% | CLint scaled [3]: 54.6 mL/min/kg | CLint scaled [4]: 25.5 mL/min/kg
Compound: COCCN1C[C@@H](n2cc(F)c(F)c2)[C@H](NC(=O)Nc2c(C)c(-c3cnc4c(c3)CN(C)C4)nn2-c2ccccc2)C1 [Compound 2]

IC50 (TrkA): 0.00024 µM
Compound: COCCN1C[C@@H](n2ccc(F)c2)[C@H](NC(=O)Nc2c(C)c(-c3cnc4c(c3)COC4)nn2-c2ccccc2)C1 [Compound 5]
